In this test the target is T1, human recombinant A1AR (Homo sapiens, UniProt P30542).
T1 construct: expressed in transfected cells; membrane preparation
T1 sequence (P30542 1-326): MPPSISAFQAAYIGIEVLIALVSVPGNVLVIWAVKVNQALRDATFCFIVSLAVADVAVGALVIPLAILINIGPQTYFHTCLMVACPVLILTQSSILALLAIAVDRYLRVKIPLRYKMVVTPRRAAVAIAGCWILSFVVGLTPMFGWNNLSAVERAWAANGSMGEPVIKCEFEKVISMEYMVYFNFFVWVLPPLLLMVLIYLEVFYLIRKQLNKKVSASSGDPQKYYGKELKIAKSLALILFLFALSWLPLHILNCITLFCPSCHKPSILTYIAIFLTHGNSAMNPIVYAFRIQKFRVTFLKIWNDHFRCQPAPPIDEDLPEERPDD
The test is described as follows: Radioligand binding at human A1AR ([3H]CCPA displacement, CHO cell membranes). To be noted: displacement of [3H]CCPA, n = 3–5, means ± standard errors. The protocol: The affinities of the newly synthesized compounds 7–13 and 17–21 were determined in binding studies at human recombinant A1, A2A, and A3 ARs, stably transfected in Chinese hamster ovary (CHO) cells, using [^3H]CCPA (2-chloro-N^6-cyclopentylAdo), [^3H]NECA (5′-N-ethylcarboxamidoAdo), and [^3H]HEMADO (2-hexynyl-N^6-methylAdo) as respective radioligands. Most of the compounds were also evaluated at A2BARs in a functional study using the GloSensor cAMP assay. The results are reported in Table 1 as Ki values in nM (± standard errors). In the case of A2BARs, Ki-values were calculated from IC50-values determined by the inhibition of NECA-stimulated adenylyl cyclase activity.
Cell culture: The Chinese hamster ovary cells (CHO) stably transfected with the desired ARs were grown in DMEM/F12 medium containing 10% FBS (fetal bovine serum), 100 U/mL penicillin, 100 µg/mL streptomycin, 2.5 μg/mL amphotericin B, 1 mM sodium pyruvate, 0.1 mg/mL genetecina (G418), and incubated at 37 °C in a gaseous mixture of 5% CO2: […].
Preparation of membranes: Cell membranes for binding assays were prepared mechanically detaching the cells from the petri and suspending them in a cold hypotonic buffer (5 mM Tris/HCl, 2 mM EDTA, pH 7.4). The cell suspension was homogenized (Ultra-Turrax, 2 × 15 s at maximum speed) and the homogenate centrifuged for 10 min (4 °C) to 1000× g. The supernatant was subsequently centrifuged for 30 min (4 °C) at 100,000× g and the pellet containing the membrane proteins was re-suspended in a specific buffer for each receptor subtype (A1: 50 mM Tris/HCl, pH 7.4; A2A: 50 mM Tris/HCl, 10 mM MgCl2, pH 7.4; A3: 50 mM Tris/HCl, 10 mM MgCl2, 1 mM EDTA, pH 8.25). The amount of the protein suspension was determined according to the […] using the BCA Protein Assay Kit (Pierce), frozen in liquid nitrogen, and stored at −80 °C.
Binding assays: The dissociation constants of the radioligand (KD) were calculated through saturation assays, while the dissociation constants of the compounds under study (Ki) were determined by competition experiments. All binding data were calculated by nonlinear regression curves using the software GraphPad Prism 5 (GraphPad Software, San Diego, CA, USA). The increasing concentrations of the radioligand saturation binding ([^3H]-CCPA for the A1 receptor subtype, [^3H]-NECA for the A2A receptor subtype, and [^3H]-HEMADO for the A3 receptor) subtype were incubated in a total volume of 250 μL containing 0.2 U/mL of Ado deaminase (ADA) and 12 micrograms of membrane proteins in the specific buffer. In competition experiments for the A1 receptor subtype, each compound was added at increasing concentrations, to the well containing 1 nM of [^3H]-CCPA, to a final volume of 200 μL. The samples were left to incubate for 3 h at room temperature, filtered in a filter 96-well plate (UniFilter GF/C, Perkin-Elmer Life and Analytical Science, Boston, MA) using the FilterMate Cell Harvester (Perkin-Elmer), and washed 3 times with cold distilled water. After drying the filter plate at 40 °C for 30′, they 20 μL of scintillating liquid (Microscint-20, Perkin-Elmer) was added to each well, and then the radioactivity was quantized with the MicroBeta2 Plate Counter (Perkin-Elmer). The conditions for binding experiments at A2A and A3 receptor subtypes were essentially the same as for the A1AR using [^3H]-NECA (N-ethylcarboxyamideAdo) at a concentration of 10 nM and [^3H]-HEMADO (2-(1-hexyne)-N^6-methylAdo) at a concentration of 1 nM as radioligands, respectively. The samples were incubated with 12 micrograms of protein for 3 h at room temperature and filtered as described above.
The non-specific binding was determined in the presence of 1 mM theophylline for the A1AR, or 100 µM R-PIA (N^6-(1-methyl-2-phenylethyl)Ado) for the A2A and A3 receptors.
Background: Loss of bound radioactivity is the signal in a displacement assay; it reports binding, not function.

Ki data for one compound are collected here from article PMC9032385, “A2A Adenosine Receptor Antagonists: Are Triazolotriazine and Purine Scaffolds Interchangeable?” (Molecules, 2022).

Broadly, the Ki is the equilibrium dissociation constant of an inhibitor or competing ligand from its target.

Take `CCn1c(-c2ccco2)nc2c(N)nc(NCCc3ccc(O)cc3)nc21` [compound 13, 4-(2-((6-Amino-9-ethyl-8-(furan-2-yl)-9H-purin-2-yl)amino)ethyl)phenol]: the Ki is 51 nM.
